Key:
Format in all cases: in vivo
[1] = test system: pigweed (Amaranthus retroflexus); assay: Test A preemergence, pigweed; details: 0 to 100 scale (0 no effect, 100 complete control)
In short: (§1)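 Compounds in non-phytotoxic solvent with surfactant. Soil: loam/sand. Preemergence via directed soil spray after seeding; postemergence on seedlings 2–10 cm, one- to two-leaf.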

[2] = test system: kochia (Bassia scoparia); assay: Test A postemergence, kochia; details: Postemergence, 0 to 100 scale (0 no effect, 100 complete control); for Plant response rating, Kochia: 125 g ai/ha; for Kochia plant response rating: 500 g ai/ha, visual injury vs untreated controls after approx. 10 days
In short: (§2)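 After sowing into a sand-amended loam, pots for the preemergence test were treated by spraying directly onto soil. In parallel, seedlings at the one- to two-leaf stage and 2 to 10 cm tall were treated postemergence with the identical surfactant-containing formulation.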

[3] = test system: blackgrass (Alopecurus myosuroides); assay: Test A postemergence, blackgrass; details: Postemergence, 0 to 100 scale (0 no effect, 100 complete control); for Plant response rating, Blackgrass: 125 g ai/ha; for Blackgrass plant response rating: 500 g ai/ha, visual injury vs untreated controls after approx. 10 days
In short: as §2

[4] = test system: wheat (Triticum aestivum); assay: Test A postemergence, wheat; details: Postemergence, 0 to 100 scale (0 no effect, 100 complete control); for Plant response rating, Wheat: 125 g ai/ha; for Wheat plant response rating: 500 g ai/ha, visual injury vs untreated controls after approx. 10 days
In short: as §1

[5] = test system: Ryegrass, Italian (Italian ryegrass, Lolium multiflorum); assay: Test A preemergence, Ryegrass, Italian; details: Preemergence, 0 to 100 scale (0 no effect, 100 complete control)
In short: as §2

[6] = test system: ragweed (common ragweed, Ambrosia artemisiifolia); assay: Test A preemergence, ragweed; details: Preemergence, 0 to 100 scale (0 no effect, 100 complete control)
In short: as §2

[7] = test system: barnyardgrass (Echinochloa crus-galli); assay: Test A postemergence, barnyardgrass; details: Postemergence, 0 to 100 scale (0 no effect, 100 complete control); for Plant response rating, Barnyardgrass: 125 g ai/ha; for Barnyardgrass plant response rating: 500 g ai/ha, visual injury vs untreated controls after approx. 10 days
In short: as §1

[8] = test system: galium (catchweed bedstraw, Galium aparine); assay: Test A postemergence, galium; details: Postemergence, 0 to 100 scale (0 no effect, 100 complete control); for Plant response rating, Galium: 125 g ai/ha; for Galium plant response rating: 500 g ai/ha, visual injury vs untreated controls after approx. 10 days
In short: as §1

[9] = test system: ragweed (common ragweed, Ambrosia artemisiifolia); assay: Test A postemergence, ragweed; details: Postemergence, 0 to 100 scale (0 no effect, 100 complete control); for Plant response rating, Ragweed: 125 g ai/ha; for Ragweed plant response rating: 500 g ai/ha, visual injury vs untreated controls after approx. 10 days
In short: as §2

[10] = test system: Foxtail, Giant (giant foxtail, Setaria faberi); assay: Test A preemergence, Foxtail, Giant; details: Preemergence, 0 to 100 scale (0 no effect, 100 complete control)
In short: as §2

[11] = test system: Ryegrass, Italian (Italian ryegrass, Lolium multiflorum); assay: Test A postemergence, Ryegrass, Italian; details: Postemergence, 0 to 100 scale (0 no effect, 100 complete control); for Plant response rating, Ryegrass, Italian: 125 g ai/ha; for Ryegrass, Italian plant response rating: 500 g ai/ha, visual injury vs untreated controls after approx. 10 days
In short: as §2

[12] = test system: barnyardgrass (Echinochloa crus-galli); assay: Test A preemergence, barnyardgrass; details: Preemergence, 0 to 100 scale (0 no effect, 100 complete control)
In short: as §2

[13] = test system: corn (Zea mays); assay: Test A postemergence, corn; details: Postemergence, 0 to 100 scale (0 no effect, 100 complete control); for Plant response rating, Corn: 125 g ai/ha; for Corn plant response rating: 500 g ai/ha, visual injury vs untreated controls after approx. 10 days
In short: as §2

[14] = test system: Foxtail, Giant (giant foxtail, Setaria faberi); assay: Test A postemergence, Foxtail, Giant; details: Postemergence, 0 to 100 scale (0 no effect, 100 complete control); for Plant response rating, Foxtail, Giant: 125 g ai/ha; for Foxtail, Giant plant response rating: 500 g ai/ha, visual injury vs untreated controls after approx. 10 days
In short: as §2

[15] = test system: pigweed (Amaranthus retroflexus); assay: Test A postemergence, pigweed; details: Postemergence, 0 to 100 scale (0 no effect, 100 complete control); for Plant response rating, Pigweed: 125 g ai/ha; for Pigweed plant response rating: 500 g ai/ha, visual injury vs untreated controls after approx. 10 days
In short: as §2

[16] = test system: kochia (Bassia scoparia); assay: Test A preemergence, kochia; details: Preemergence, 0 to 100 scale (0 no effect, 100 complete control)
In short: as §2

[17] = 125 g ai/ha, visual injury, approx. 10 days

Structure (SMILES) | Plant response rating, Pigweed [1, 17] | Plant response rating, Pigweed ([1]; 500 g ai/ha) | Plant response rating, Kochia [2] | Kochia plant response rating [2] | Plant response rating, Blackgrass [3] | Blackgrass plant response rating [3] | Plant response rating, Wheat [4] | Wheat plant response rating [4] | Plant response rating, Ryegrass, Italian [5, 17] | Plant response rating, Ryegrass, Italian ([5]; 500 g ai/ha) | Plant response rating, Ragweed [6, 17] | Plant response rating, Ragweed ([6]; 500 g ai/ha) | Plant response rating, Barnyardgrass [7] | Barnyardgrass plant response rating [7] | Plant response rating, Galium [8] | Galium plant response rating [8] | Plant response rating, Ragweed [9] | Ragweed plant response rating [9] | Plant response rating, Foxtail, Giant [10, 17] | Plant response rating, Foxtail, Giant ([10]; 500 g ai/ha) | also measured
Cc1cc(C)c(C(=O)N2CCC3(CCCCC3)CC2)cc1NS(=O)(=O)C(F)(F)F [Compound 195] | 60 | 80 | 0 | 0 | 0 | 0 | 0 | 0 | 20 | 90 | 0 | 0 | 0 | 0 | 10 | 20 | 0 | 50 | 70 | 90 | Plant response rating, Ryegrass, Italian [11]: 0; Ryegrass, Italian plant response rating [11]: 0; Plant response rating, Barnyardgrass [12, 17]: 60; Plant response rating, Barnyardgrass ([12]; 500 g ai/ha): 90; Plant response rating, Corn [13]: 20; Corn plant response rating [13]: 0; Plant response rating, Foxtail, Giant [14]: 0; Foxtail, Giant plant response rating [14]: 0; Plant response rating, Pigweed [15]: 0; Pigweed plant response rating [15]: 0; Plant response rating, Kochia [16, 17]: 0; Plant response rating, Kochia ([16]; 500 g ai/ha): 0
Cc1cc(Cl)c(NS(=O)(=O)C(F)(F)F)cc1C1=NOC(C)(C)C1 [Compound 203] | 60 | 100 | 40 | 80 | 20 | 30 | 40 | 70 | 50 | 100 | 80 | 90 | 60 | 80 | 80 | 90 | 70 | 90 | 30 | 100 | Plant response rating, Ryegrass, Italian [11]: 0; Ryegrass, Italian plant response rating [11]: 60; Plant response rating, Barnyardgrass [12, 17]: 90; Plant response rating, Barnyardgrass ([12]; 500 g ai/ha): 90; Plant response rating, Corn [13]: 10; Corn plant response rating [13]: 60; Plant response rating, Foxtail, Giant [14]: 0; Foxtail, Giant plant response rating [14]: 50; Plant response rating, Pigweed [15]: 20; Pigweed plant response rating [15]: 60; Plant response rating, Kochia [16, 17]: 60; Plant response rating, Kochia ([16]; 500 g ai/ha): 90
Cc1cc(Cl)c(NS(=O)(=O)C(F)(F)F)cc1C1=NOC2(CCCC2)C1 [Compound 204] | 90 | 100 | 30 | 70 | 0 | 40 | 50 | 70 | 90 | 100 | 10 | 90 | 0 | 80 | 50 | 80 | 20 | 80 | 80 | 100 | Plant response rating, Ryegrass, Italian [11]: 40; Ryegrass, Italian plant response rating [11]: 50; Plant response rating, Barnyardgrass [12, 17]: 90; Plant response rating, Barnyardgrass ([12]; 500 g ai/ha): 90; Plant response rating, Corn [13]: 10; Corn plant response rating [13]: 50; Plant response rating, Foxtail, Giant [14]: 10; Foxtail, Giant plant response rating [14]: 60; Plant response rating, Pigweed [15]: 20; Pigweed plant response rating [15]: 70; Plant response rating, Kochia [16, 17]: 40; Plant response rating, Kochia ([16]; 500 g ai/ha): 90
Cc1cc(C)c(C2=NOC(C)(C)C2)cc1NS(=O)(=O)C(F)(F)F [Compound 206] | 90 | 100 | 20 | 70 | 50 | 50 | 60 | 80 | 80 | 90 | 40 | 80 | 60 | 80 | 70 | 80 | 60 | 90 | 80 | 90 | Plant response rating, Ryegrass, Italian [11]: 50; Ryegrass, Italian plant response rating [11]: 90; Plant response rating, Barnyardgrass [12, 17]: 90; Plant response rating, Barnyardgrass ([12]; 500 g ai/ha): 90; Plant response rating, Corn [13]: 0; Corn plant response rating [13]: 70; Plant response rating, Foxtail, Giant [14]: 50; Foxtail, Giant plant response rating [14]: 60; Plant response rating, Pigweed [15]: 60; Pigweed plant response rating [15]: 70; Plant response rating, Kochia [16, 17]: 80; Plant response rating, Kochia ([16]; 500 g ai/ha): 90
Cc1cc(C)c(N(S(=O)(=O)C(F)(F)F)S(=O)(=O)C(F)(F)F)cc1C1=NOC2(CCCC2)C1 [Compound 208] | 60 | 70 | 10 | 30 | 0 | 20 | 0 | 50 | 70 | 80 | 0 | 0 | 0 | 30 | 30 | 70 | 20 | 20 | 90 | 100 | Plant response rating, Ryegrass, Italian [11]: 0; Ryegrass, Italian plant response rating [11]: 40; Plant response rating, Barnyardgrass [12, 17]: 90; Plant response rating, Barnyardgrass ([12]; 500 g ai/ha): 90; Plant response rating, Corn [13]: 0; Corn plant response rating [13]: 20; Plant response rating, Foxtail, Giant [14]: 0; Foxtail, Giant plant response rating [14]: 40; Plant response rating, Pigweed [15]: 20; Pigweed plant response rating [15]: 50; Plant response rating, Kochia [16, 17]: 90; Plant response rating, Kochia ([16]; 500 g ai/ha): 90
CCC1(CC)CC(c2cc(NS(=O)(=O)C(F)(F)F)c(C)cc2C)=NO1 [Compound 209] | 0 | 50 | 20 | 40 | 20 | 30 | 0 | 0 | 50 | 90 | 0 | 60 | 20 | 70 | 70 | 80 | 40 | 60 | 20 | 70 | Plant response rating, Ryegrass, Italian [11]: 40; Ryegrass, Italian plant response rating [11]: 90; Plant response rating, Barnyardgrass [12, 17]: 40; Plant response rating, Barnyardgrass ([12]; 500 g ai/ha): 90; Plant response rating, Corn [13]: 0; Corn plant response rating [13]: 30; Plant response rating, Foxtail, Giant [14]: 0; Foxtail, Giant plant response rating [14]: 10; Plant response rating, Pigweed [15]: 30; Pigweed plant response rating [15]: 50; Plant response rating, Kochia [16, 17]: 0; Plant response rating, Kochia ([16]; 500 g ai/ha): 80
Cc1cc(C)c(N(S(=O)(=O)C(F)(F)F)S(=O)(=O)C(F)(F)F)cc1C(=O)N1CCC(F)(F)CC1 [Compound 210] | 100 | 100 | 50 | 90 | 0 | 0 | 0 | 60 | 50 | 100 | 80 | 90 | 20 | 90 | 80 | 90 | 80 | 90 | 90 | 100 | Plant response rating, Ryegrass, Italian [11]: 20; Ryegrass, Italian plant response rating [11]: 40; Plant response rating, Barnyardgrass [12, 17]: 90; Plant response rating, Barnyardgrass ([12]; 500 g ai/ha): 100; Plant response rating, Corn [13]: 10; Corn plant response rating [13]: 40; Plant response rating, Foxtail, Giant [14]: 0; Foxtail, Giant plant response rating [14]: 30; Plant response rating, Pigweed [15]: 60; Pigweed plant response rating [15]: 100; Plant response rating, Kochia [16, 17]: 30; Plant response rating, Kochia ([16]; 500 g ai/ha): 90

Reference: US20230278972A1, “SUBSTITUTED HALOALKYL SULFONANILIDE HERBICIDES” (FMC Corporation, priority 2020, published 2023)
